Here are results for 26 compounds from patent US10647727B2, “Substituted pyrazolo/imidazolo bicyclic compounds as PDE2 inhibitors” (Merck Sharp & Dohme Corp., priority 2015, dated 2020).

For orientation: Ki means a dissociation constant, usually derived from enzyme kinetics or from competition with a known ligand.

The first assay deals with Rhesus PDE2A3 (Macaca mulatta, UniProt B3VTJ2). The experiment in a line: PDE2 fluorescence polarization (IMAP FP) inhibition assay, rhesus enzyme. The format is biochemical, rhesus macaque. The settings on record: Lab A; read-out: Rhesus PDE2 Ki (nM) Lab A. For orientation: In fluorescence polarisation assays a small probe gives low polarisation when free and higher when bound to something large.
Chain of Rhesus PDE2A3 (B3VTJ2 1-941): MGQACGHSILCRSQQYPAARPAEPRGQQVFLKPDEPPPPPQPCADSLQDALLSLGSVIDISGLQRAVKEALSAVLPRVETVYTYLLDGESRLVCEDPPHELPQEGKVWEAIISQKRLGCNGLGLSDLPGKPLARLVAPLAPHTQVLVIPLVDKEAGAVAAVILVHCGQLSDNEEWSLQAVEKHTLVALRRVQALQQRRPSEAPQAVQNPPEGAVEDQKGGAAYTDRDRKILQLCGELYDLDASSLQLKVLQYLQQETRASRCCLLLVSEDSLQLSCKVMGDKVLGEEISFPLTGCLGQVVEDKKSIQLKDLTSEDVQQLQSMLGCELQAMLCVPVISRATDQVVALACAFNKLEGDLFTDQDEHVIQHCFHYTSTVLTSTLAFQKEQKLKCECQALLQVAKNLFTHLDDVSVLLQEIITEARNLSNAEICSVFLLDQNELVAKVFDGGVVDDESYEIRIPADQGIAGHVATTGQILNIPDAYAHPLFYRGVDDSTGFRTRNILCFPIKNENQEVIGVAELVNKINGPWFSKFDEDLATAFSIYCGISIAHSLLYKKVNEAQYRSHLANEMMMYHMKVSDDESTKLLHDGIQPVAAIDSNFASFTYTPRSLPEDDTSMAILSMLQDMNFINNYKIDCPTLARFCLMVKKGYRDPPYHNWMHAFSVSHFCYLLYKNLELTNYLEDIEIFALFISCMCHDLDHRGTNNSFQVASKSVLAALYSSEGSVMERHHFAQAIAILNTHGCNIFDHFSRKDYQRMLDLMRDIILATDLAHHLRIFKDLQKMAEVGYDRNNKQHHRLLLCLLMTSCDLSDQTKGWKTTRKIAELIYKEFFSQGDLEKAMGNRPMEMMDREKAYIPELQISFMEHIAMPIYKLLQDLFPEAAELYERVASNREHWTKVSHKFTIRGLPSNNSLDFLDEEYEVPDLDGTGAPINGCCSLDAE
Consider `CC(C)c1ccc(C(C)Nc2nc(Cl)nc3c2cnn3C)cc1` (stereo not shown) [Example 5, 6-Chloro-1-methyl-N-{1-[4-(1-methylethyl)-phenyl]ethyl}-1H-pyrazolo-[3,4-d]pyrimidin-4-amine], for which the Ki was determined as 401 nM.
Consider `CCC(Nc1nc(Cl)nc2c1cnn2C)c1ccc(C(C)C)cc1` (stereo not shown) [Example 6, 6-Chloro-1-methyl-N-{1-[4-(1-methylethyl)-phenyl]propyl}-1H-pyrazolo-[3,4-d]pyrimidin-4-amine], for which the Ki came out at 468 nM.
Still for that read-out and setting: for `CC(Nc1nc(Cl)nc2c1cnn2C)c1ccc(-n2cccn2)cc1` (stereo not shown) [Example 7, 6-Chloro-1-methyl-N-{1-[4-(1H-pyrazol-1-yl)phenyl]-ethyl}-1H-pyrazolo[3,4-d]-pyrimidin-4-amine] the value was 2650 nM; for `C[C@H](c1ccc(C(F)(F)F)cc1)N(C)c1nc(Cl)nc2c1cnn2C` [Example 14, 6-Chloro-N,1-dimethyl-N-{(1R)-1-[4-(trifluoromethyl)phenyl]ethyl}-1H-pyrazolo[3,4-d]pyrimidin-4-amine], 137 nM; for `CN(Cc1ccc(C(F)(F)F)cc1)c1nc(Cl)nc2c1cnn2C` [Example 15, 6-Chloro-N,1-dimethyl-N-[4-(trifluoromethyl)-benzyl]-1H-pyrazolo-[3,4-d]pyrimidin-4-amine], 997 nM.
Same read-out and setting: the same measure for `CCN(Cc1ccc(C(F)(F)F)cc1)c1nc(Cl)nc2c1cnn2C` [Example 16, 6-Chloro-N-ethyl-1-methyl-N-[4-(trifluoromethyl)-benzyl]-1H-pyrazolo-[3,4-d]pyrimidin-4-amine]: 866 nM.
The same measure, in the same setting: the same measure for `CC(Nc1nc(Cl)nc2c1cnn2C(C)C)c1ccc(C(F)(F)F)cc1` (stereo not shown) [Example 18, 6-Chloro-1-(1-methylethyl)-N-{1-[4-(trifluoromethyl)phenyl]ethyl}-1H-pyrazolo[3,4-d]pyrimidin-4-amine]: 1970 nM.

The target in another assay is human PDE2A1 (Homo sapiens (Human), UniProt O00408). The experiment in a line: biochemical. The settings on record: Lab A; read-out: Human PDE2 Ki (nM) Lab A. Type of assay: biochemical.
Chain of human PDE2A1 (O00408 other isoform, or with tags, fused parts or gaps): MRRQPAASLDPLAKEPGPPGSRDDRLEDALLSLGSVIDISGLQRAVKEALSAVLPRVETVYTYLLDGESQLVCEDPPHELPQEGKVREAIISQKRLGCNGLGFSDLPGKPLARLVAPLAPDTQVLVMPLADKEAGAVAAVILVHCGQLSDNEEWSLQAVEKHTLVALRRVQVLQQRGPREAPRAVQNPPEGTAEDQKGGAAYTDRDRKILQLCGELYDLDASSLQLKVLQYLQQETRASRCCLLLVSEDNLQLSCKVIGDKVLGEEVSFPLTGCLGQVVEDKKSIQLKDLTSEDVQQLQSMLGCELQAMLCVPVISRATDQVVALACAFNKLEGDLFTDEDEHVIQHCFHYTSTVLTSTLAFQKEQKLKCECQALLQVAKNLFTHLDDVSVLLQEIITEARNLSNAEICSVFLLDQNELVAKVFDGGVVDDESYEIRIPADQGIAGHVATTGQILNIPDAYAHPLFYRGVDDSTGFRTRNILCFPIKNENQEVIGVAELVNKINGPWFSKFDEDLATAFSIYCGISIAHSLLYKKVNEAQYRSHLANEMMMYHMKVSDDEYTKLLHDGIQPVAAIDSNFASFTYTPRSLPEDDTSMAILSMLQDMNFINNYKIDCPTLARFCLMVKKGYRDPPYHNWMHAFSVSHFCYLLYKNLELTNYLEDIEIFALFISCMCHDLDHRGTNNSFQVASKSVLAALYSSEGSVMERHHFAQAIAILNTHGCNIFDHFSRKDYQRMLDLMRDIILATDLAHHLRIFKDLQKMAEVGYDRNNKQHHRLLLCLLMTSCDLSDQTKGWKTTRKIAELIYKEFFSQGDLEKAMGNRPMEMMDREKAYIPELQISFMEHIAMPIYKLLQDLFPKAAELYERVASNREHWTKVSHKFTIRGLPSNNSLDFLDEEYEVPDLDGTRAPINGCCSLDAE
Consider `C[C@H](c1ccc(C(F)(F)F)cc1)N(C)c1nc(Cl)nc2c1cnn2C` [Example 14, 6-Chloro-N,1-dimethyl-N-{(1R)-1-[4-(trifluoromethyl)phenyl]ethyl}-1H-pyrazolo[3,4-d]pyrimidin-4-amine], for which the Ki came out at 65 nM.
For `CCN(Cc1ccc(C(F)(F)F)cc1)c1nc(Cl)nc2c1cnn2C` [Example 16, 6-Chloro-N-ethyl-1-methyl-N-[4-(trifluoromethyl)-benzyl]-1H-pyrazolo-[3,4-d]pyrimidin-4-amine], the Ki stood at 429 nM.

Still in this assay, the particulars now being: Lab B; read-out: Human PDE2 Ki (nM) Lab B.
Turning to `Cc1nc(NC2(c3ccc(C(F)(F)F)cc3F)CC2)c2cnn(C)c2n1` [Example 24, N-{1-[2-Fluoro-4-(trifluoromethyl)-phenyl]cyclo-propyl}-1,6-dimethyl-1H-pyrazolo[3,4-d]-pyrimidin-4-amine], the Ki was found to be 29 nM.
Still for that read-out and setting: for `Cc1nc(N(C)C2(c3ccc(C(F)(F)F)cc3)CC2)c2cnn(C)c2n1` [Example 26, N,1,6-Trimethyl-N-{1-[4-(trifluoromethyl)phenyl]cyclopropyl}-1H-pyrazolo[3,4-d]pyrimidin-4-amine] the value was 4.9 nM.
Same read-out and setting: the same measure for `Cc1nc(OC2(c3ccc(C(F)(F)F)cc3)CC2)c2cnn(C)c2n1` [Example 30, 1,6-Dimethyl-4-({1-[4-(trifluoromethyl)phenyl]cyclopropyl}oxy)-1H-pyrazolo[3,4-d]pyrimidine]: 32 nM.
On the same count and under the same terms, for `Cc1cc(N[C@@H](c2ccc(C(F)(F)F)c(F)c2)C(C)(C)C)n2ccnc2n1` [Example 32, (R)—N-(1-(3-Fluoro-4-(trifluoromethyl)phenyl)-2,2-dimethylpropyl)-7-methylimidazo[1,2-a]pyrimidin-5-amine] the value was 51 nM; for `Cc1nc(N[C@@H](c2ccc(C(F)(F)F)c(F)c2)C(C)(C)C)c2nc[nH]c2n1` [Example 35], 566 nM.
As for `Cc1nc(NC2(c3ccc(C(F)(F)F)c(F)c3)CC2)c2nc[nH]c2n1` [Example 36, N-{1-[3-Fluoro-4-(trifluoromethyl)phenyl]cyclopropyl}-2-methyl-9H-purin-6-amine], the Ki is 206 nM.
Turning to `Cc1nc(NC2(c3ccc(C(F)(F)F)c(F)c3)CC2)c2ncn(C)c2n1` [Example 37, N-(1-(3-Fluoro-4-(trifluoromethyl)phenyl)cyclopropyl)-2,9-dimethyl-9H-purin-6-amine], the inhibitory constant (Ki) is 115 nM.
On the same count and under the same terms, the same measure for `Cc1cc(NC2(c3ccc(C(F)(F)F)c(F)c3)CC2)n2ncc(C#N)c2n1` [Example 39, 7-((1-(3-Fluoro-4-(trifluoromethyl)phenyl)cyclopropyl)amino)-5-methylpyrazolo[1,5-a]pyrimidine-3-carbonitrile]: 503 nM; for `Cc1cc(N[C@@H](c2ccc(C(F)(F)F)c(F)c2)C(C)(C)C)n2ncc(C#N)c2n1` [Example 40, 7-({(1R)-1-[3-Fluoro-4-(trifluoromethyl)phenyl]-2,2-dimethylpropyl}amino)-5-methylpyrazolo[1,5-a]pyrimidine-3-carbonitrile]: 462 nM.
Consider `Cc1cc(NC2(c3ccc(C(F)(F)F)c(F)c3)CC2)n2ncc(N)c2n1` [Example 41, N^7-{1-[3-Fluoro-4-(trifluoromethyl)phenyl]cyclopropyl}-5-methylpyrazolo[1,5-a]pyrimidine-3,7-diamine], for which the Ki came out at 337 nM.
Consider `Cc1cc(N[C@@H](c2ccc(C(F)(F)F)c(F)c2)C(C)(C)C)n2ncc(N)c2n1` [Example 42, N^7-{(1R)-1-[3-Fluoro-4-(trifluoromethyl)phenyl]-2,2-dimethylpropyl}-5-methylpyrazolo[1,5-a]pyrimidine-3,7-diamine], for which the Ki was 580 nM.
The same measure, in the same setting: the same measure for `Cc1cc(NC2(c3ccc(C(F)(F)F)c(F)c3)CC2)n2nc(CO)cc2n1` [Example 43, [7-({1-[3-Fluoro-4-(trifluoromethyl)phenyl]cyclopropyl}amino)-5-methylpyrazolo[1,5-a]pyrimidin-2-yl]methanol]: 169 nM; for `Cc1cc(NC2(c3ccc(C(F)(F)F)c(F)c3)CC2)n2ncc(CO)c2n1` [Example 45, [7-({1-[3-Fluoro-4-(trifluoromethyl)phenyl]cyclopropyl}amino)-5-methylpyrazolo[1,5-a]pyrimidin-3-yl]methanol]: 682 nM.
The same measure, in the same setting: for `Cc1cc(N[C@@H](c2ccc(C(F)(F)F)c(F)c2)C(C)(C)C)n2ncc(CO)c2n1` [Example 46] the value was ~2640 nM; for `Cc1cc(NC2(c3ccc(C(F)(F)F)c(F)c3)CC2)n2nccc2n1` [Example 47, N-{1-[3-Fluoro-4-(trifluoromethyl)phenyl]cyclopropyl}-5-methylpyrazolo[1,5-a]pyrimidin-7-amine], 199 nM; for `Cc1cc(N[C@@H](c2ccc(C(F)(F)F)c(F)c2)C(C)(C)C)n2nccc2n1` [Example 48, N-{(1R)-1-[3-Fluoro-4-(trifluoromethyl)phenyl]-2,2-dimethylpropyl}-5-methylpyrazolo[1,5-a]pyrimidin-7-amine], 174 nM.

The assay is the same for the next values; noted with them: read-out: Human PDE2 Ki (nM) Lab B.
Regarding `CC(C)(O)C(Nc1nc(C(F)(F)F)cc2nccn12)c1ccc(C(F)(F)F)c(F)c1` (single isomer, unassigned) [Example 33, (R or S)-1-[3-Fluoro-4-(trifluoromethyl)phenyl]-2-methyl-1-{[7-(trifluoromethyl)imidazo[1,2-c]pyrimidin-5-yl]amino}propan-2-ol], the Ki turned out to be 1330 nM.
On the same count and under the same terms, for `CC(C)(O)C(Nc1nc(C(F)(F)F)cc2nccn12)c1ccc(C(F)(F)F)c(F)c1` (single isomer, unassigned) [Example 34, (S or R)-1-[3-Fluoro-4-(trifluoromethyl)phenyl]-2-methyl-1-{[7-(trifluoromethyl)imidazo[1,2-c]pyrimidin-5-yl]amino}propan-2-ol] the value was > 2960 nM; for `Cc1cc(NC2(c3ccc(C(F)(F)F)c(F)c3)CC2)n2ccnc2n1` [Example 31, N-(1-(3-Fluoro-4-(trifluoromethyl)phenyl)cyclopropyl)-7-methylimidazo[1,2-a]pyrimidin-5-amine], 55 nM.
